The subject of one series is PDE4. Description: Inhibition of PDE4 activity (cytosol from human neutrophils, [3H]cAMP hydrolysis). Type of series: biochemical. Conditions: 0.5 μM cAMP, Motapizone 1 μM, DMSO 0.5% for (some of) examples 1-19, 1% from example 20. On the procedure: Method for Measuring Inhibition of PDE4 Activity
PDE4 activity was determined as described by Thompson et al. (Adv Cycl Nucl Res 10: 69-92, 1979) with some modifications (Bauer and Schwabe, Naunyn-Schmiedeberg's Arch Pharmacol 311: 193-198, 1980). At a final assay volume of 200 μl (96well microtiter plates) the assay mixture contained 20 mM Tris-HCl (pH 7.4), 5 mM MgCl2, 0.5 μM cAMP, [^3H]cAMP (about 30,000 cpm/assay), the test compound and an aliquot of cytosol from human neutrophils which mainly contains PDE4 activity as described by Schudt et al. (Naunyn-Schmiedeberg's Arch Pharmacol 344: 682-690, 1991); the PDE3-specific inhibitor Motapizone (1 μM) was included to suppress PDE3 activity originating from contaminating platelets.
To minimize problems with the solubility of the compounds, starting from example 20 serial dilutions of the compounds were prepared directly in DMSO and further diluted 1:100 (v/v) in the assays to obtain now the final concentrations of the inhibitors at a DMSO concentration of 1% (v/v) which by itself only slightly affected PDE4 activity.
After preincubation for 5 min at 37° C., the reaction was started by the addition of substrate (cAMP) and the assays were incubated for further 15 min at 37° C. 50 μl of 0.2 N HCl was added to stop the reaction and the assays were left on ice for about 10 min. Following incubation with 25 μg 5′-nucleotidase (Crotalus atrox snake venom) for 10 min at 37° C., the assays were loaded on QAE Sephadex A-25 (1 ml bed volume). The columns were eluted with 2 ml of 30 mM ammonium formiate (pH 6.0) and the eluate was counted for radioactivity. Results were corrected for blank values (measured in the presence of denatured protein) which were below 5% of total radioactivity. […] The IC50-values for the compounds according to the invention for the inhibition of the PDE4 activity were determined from the concentration-inhibition curves by nonlinear-regression.

Another series has as its system human eosinophils. Description: Inhibition of C5a-stimulated chemiluminescence in human eosinophils. In kind it is cell-based. Conditions: 100 nM C5a, 100 nM salbutamol included as additional cAMP trigger; for IC30: Eosinophil, read-out: Inhibition of C5a-stimulated chemiluminescence [-logIC30 (mol/l)] (converted). The source says:
c) Inhibition of C5a-stimulated Chemiluminescence in Human Eosinophils
Eosinophils were purified essentially as described in detail elsewhere (Hatzelmann A, Tenor H and Schudt C, Differential effects of non-selective and selective phosphodiesterase inhibitors on human eosinophil functions. Brit J Pharmacol 114: 821-831, 1995). Briefly, total granulocytes were first purified from blood (anticoagulated with 0.3% w/v sodium citrate) by dextran sedimentation, centrifugation on Ficoll Paque and hypotonic lysis of remaining red blood cells. For the further purification of the eosinophil fraction the magnetic cell separation (MACS) system from Miltenyi Biotec (Bergisch-Gladbach, Germany) was applied. Eosinophils were separated from neutrophils by negative selection using anti-CD16 microbeads in a two-step protocol using D- and BS-(formerly called B2-) separation columns. By this method human eosinophils with a purity of >99% and a viability of >97% were obtained.
The chemiluminescence (CL) assay was essentially performed as described (Hatzelmann et al., 1995). Briefly, measurements were performed in a “CL-buffer” (140 mM NaCl, 5 mM KCl, 1 mM MgCl2, 10 mM HEPES, pH 7.4) containing 1 mM CaCl2, 1 mg/ml glucose, 0.05% (w/v) BSA, 10 μM luminol and 4 μM microperoxidase (all values correspond to final concentrations in the assays) in a total volume of 0.5 ml at a cell concentration of 10^6 cells/ml. Aliquots (0.4 ml) of the cell suspension (containing luminol and microperoxidase) were preincubated for 5 min at 37° C. in the absence or presence of inhibitors (0.05 ml). Stock solutions of the inhibitors (10 mM) were prepared in DMSO and diluted 1:100 (v/v) in CL-buffer; subsequent dilutions were made in 1% DMSO/CL-buffer to achieve the final drug concentrations in the assays at a DMSO concentration of 0.1% (v/v) which by itself only weakly affected the CL response. […] After preincubation, the assays were transferred into a “Multi-biolumat LB 9505C” from Berthold (Wildbad, Germany) and stimulated by the addition of 0.05 ml C5a (dissolved in CL-buffer; 100 nM final concentration). CL was continuously recorded for 1 min (C5a) and the AUC (area under the curve) calculated. Inhibition of CL by the compounds under these conditions is given as −log IC30 (mol/l).

A further series has as its target T1, β2-adrenoceptor (Cavia porcellus, UniProt Q8K4Z4).
T1 construct: Male guinea-pigs (350-450 g) were killed by a sharp blow on the head and exsanguination, after that the trachea was removed; from tissue; host or cells: isolated guinea-pig trachea (ring chains in organ bath)
As to the kind of experiment: β2-Adrenoceptor agonistic activity in isolated guinea-pig trachea (relaxation). Type of series: cell-based. Conditions: half-maximal relaxation of isolated guinea-pig trachea pre-treated with 3×10^−7 M RP 73401. An excerpt:
b) β2-Adrenoceptor Agonistic Activity in Isolated Guinea-pig Trachea
Male guinea-pigs (350-450 g) were killed by a sharp blow on the head and exsanguination, after that the trachea was removed. After clearing off adhering tissue the trachea was cut into single rings which were tied together forming up to six 4- to 5-ring chains which were suspended in 10-ml organ baths containing Krebs buffer of the following composition (mM): NaCl 118, KCl 5.2, CaCl2 1.9, MgSO4 0.56, NaH2PO4 0.8, NaHCO3 25.0, and glucose 11.1, maintained at 37° C. and continuously aerated with a mixture of 95% O2 and 5% CO2. The end of the chain was tied at the bottom of the tissue bath and connected to a force-displacement transducer (Type K-30, Hugo Sachs Elektronik, Germany) for the recording of isometric tension changes and then placed under 1.5 to 2 g of tension. After a 60 min equilibration period, during which time the preparations were repeatedly washed and the spontaneous contraction plateaud, each tracheal preparation was pre-treated with 3×10^−7 M of RP 73401 for total inhibition of PDE4, which caused relaxation of the tissue between 30 and 40% of maximum (Harris et al., 1989, JPET 251: 199-206). After stabilization of the relaxant response to RP 73401, the test drugs were administered in a cumulative manner (factor 3), each concentration remaining in contact with the trachea until the […] response reached a plateau, before addition of the next higher concentration. At the end of the test drug administration, which caused maximal relaxation the tissue (verified in control experiments for each test drug by additional administration of 10^−6 M (−)-isoprenaline), a high concentration of the β-adrenoceptor antagonist, dl-sotalol (3−6×10^−4 M), was additionally given to assess whether the relaxant response of the trachea to test compound was due to β2-adrenoceptor stimulation. dl-Sotalol nearly completely reversed the relaxation amplitude to the test compounds and was taken as evidence for their β2-adrenoceptor agonistic property. The relaxant response to test compound was expressed as percent determined between the relaxant amplitude after that reached by RP 73401 (0%) and the maximal relaxation obtained prior to dl-sotalol administration (100%). EC50 values for a half-maximal relaxation of the tissue by test compound were graphically interpolated from 12 to 16 individual concentration-response curve. The −log EC50 values (mol/l) thus obtained were taken as a measure for β2-adrenoceptor agonistic activity of the test compounds.

T1 sequence (Q8K4Z4 whole entry): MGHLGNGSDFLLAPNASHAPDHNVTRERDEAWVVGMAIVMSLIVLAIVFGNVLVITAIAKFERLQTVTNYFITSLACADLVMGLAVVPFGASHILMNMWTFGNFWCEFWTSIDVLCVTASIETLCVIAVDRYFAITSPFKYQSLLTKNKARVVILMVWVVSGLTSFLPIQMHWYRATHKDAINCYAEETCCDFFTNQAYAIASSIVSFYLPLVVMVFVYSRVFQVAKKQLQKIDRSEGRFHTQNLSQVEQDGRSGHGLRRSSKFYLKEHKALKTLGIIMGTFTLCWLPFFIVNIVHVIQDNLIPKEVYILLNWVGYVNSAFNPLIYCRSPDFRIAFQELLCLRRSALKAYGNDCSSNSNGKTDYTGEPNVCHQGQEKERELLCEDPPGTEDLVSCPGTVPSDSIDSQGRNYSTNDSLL

Usually melting point stands for the temperature of the solid-liquid transition. `COc1ccc(C2=NN(CCNCC(O)c3cc(Cl)c(N)c(Cl)c3)C(=O)C3CC=CCC23)c2c1OC1(CCCC1)C2` (stereo not drawn) [Compound 8, (cis)-2-(2-[{2-(4-amino-3,5-dichlorophenyl)-2-hydroxyethyl}amino]-1-ethyl)-4-(2,3-dihydro-7-methoxybenzofuran-2-spiro-1′-cyclopentan-4-yl)-4a,5,8,8a-tetrahydro-2H-phthalazin-1-one]: the melting point lay in the range of 176 to 177 °C. In addition, in the series with PDE4, the Inhibition of PDE4 activity [-logIC50] was 8.18. Moreover, the IC30 in the series with human eosinophils is 0.398 µM.

The molecule `COc1ccc(C2=NN(c3ccc(OCCCCNCC(O)c4cc(Cl)c(N)c(Cl)c4)cc3)C(=O)[C@@H]3CC=CC[C@H]23)cc1OC.O=C(O)/C=C/C(=O)O` (stereo partly drawn) [Compound 21, (4aS,8aR)-2-(4-{4-[2-(4-Amino-3,5-dichlorophenyl)-2-hydroxy-ethylamino]-butoxyl}-phenyl)-4-(3,4-dimethoxy-phenyl)-4a,5,8,8a-tetrahydro-2H-phthalazin-1-one fumarate] had a melting point of 126 to 127 °C. The molecule further came in with an Inhibition of PDE4 activity [-logIC50] in the series with PDE4 of 10. In addition, the IC30 in the series on human eosinophils was 0.302 µM.

Turning to `COc1ccc(C2=NN(Cc3ccc(OCCCCNCC(O)c4cc(Cl)c(N)c(Cl)c4)cc3)C(=O)[C@@H]3CC=CC[C@H]23)cc1OC.O=C(O)/C=C/C(=O)O` (stereo partly drawn) [Compound 22, (4aS,8aR)-2-(4-{4-[2-(4-Amino-3,5-dichloro-phenyl)-2-hydroxy-ethylamino]-butoxy}-benzyl)-4-(3,4-dimethoxy-phenyl)-4a,5,8,8a-tetrahydro-2H-phthalazin-1-one fumarate], the melting point is 119 to 120 °C. Also, the Inhibition of PDE4 activity [-logIC50] with PDE4 stood at 9.79. In addition, the IC30 with human eosinophils is 0.2 µM.

For `COc1ccc(C2=NN(C3CCN(C(=S)NCCCCNCC(O)c4cc(Cl)c(N)c(Cl)c4)CC3)C(=O)[C@@H]3CC=CC[C@H]23)cc1OC` (stereo partly drawn) [Compound 25, 4-[(4aS,8aR)-4-(3,4-Dimethoxy-phenyl)-1-oxo-4a,5,8,8a-tetrahydro-1H-phthalazin-2-yl]-piperidine-1-carbothioic acid {4-[2-(4-amino-3,5-dichloro-phenyl)-2-hydroxy-ethylamino]-butyl}-amide], the melting point was in the range of 139 to 144 °C. In addition, in the series on PDE4, the Inhibition of PDE4 activity [-logIC50] worked out at 10.6. For the same molecule, in the series on human eosinophils, the IC30 is 0.794 µM.

Consider `COc1ccc(C2=NN(C3CCN(S(=O)(=O)CCNCC(O)c4cc(Cl)c(N)c(Cl)c4)CC3)C(=O)[C@@H]3CC=CC[C@H]23)cc1OC.O=C(O)/C=C/C(=O)O` (stereo partly drawn) [Compound 27, (4aS,8aR)-2-(1-{2-[2-(4-Amino-3,5-dichloro-phenyl)-2-hydroxy-ethylamino]-ethanesulfonyl}-piperidin-4yl)-4-(3,4-dimethoxy-phenyl)-4a,5,8,8a-tetrahydro-2H-phthalazin-1-one fumarate], for which the melting point fell in the range of 169 to 171 °C. The Inhibition of PDE4 activity [-logIC50] in the series on PDE4 was found to be 11.2. The IC30 in the series with human eosinophils was 0.398 µM.

With `COc1ccc(C2=NN(C3CCN(C(=O)CCSCCNCC(O)c4cc(Cl)c(N)c(Cl)c4)CC3)C(=O)[C@@H]3CC=CC[C@H]23)cc1OC.Cl` (stereo partly drawn) [Compound 30, (4aS,8aR)-2-[1-(3-{2-[2-(4-Amino-3,5-dichloro-phenyl)-2-hydroxy-ethylamino]-ethylsulfanyl}-propanoyl)-piperidin-4-yl]-4-(3,4-dimethoxy-phenyl)-4a,5,8,8a-tetrahydro-2H-phthalazin-1-one hydrochloride], the melting point was in the range of 118 to 120 °C. This molecule also gave an Inhibition of PDE4 activity [-logIC50] in the series with PDE4 of 10.7. Further, the IC30 with human eosinophils was 0.2 µM.

Consider `COc1ccc(C2=NN(C3CCN(C(=O)CCS(=O)(=O)CCNCC(O)c4cc(Cl)c(N)c(C#N)c4)CC3)C(=O)[C@@H]3CC=CC[C@H]23)cc1OC` (stereo partly drawn) [Compound 32, 2-Amino-3-chloro-5-{2-[2-(3-{4-[(4aS,8aR)-4-(3,4-dimethoxy-phenyl)-1-oxo-4a,5,8,8a-tetrahydro-1H-phthalazin-2-yl]-piperidin-1-yl}-3-oxo-propane-1-sulfonyl)-ethylamino]-1-hydroxy-ethyl}-benzonitrile], for which the melting point fell in the range of 102 to 103 °C. Moreover, in the series on PDE4, the Inhibition of PDE4 activity [-logIC50] is 11.4. Further, the IC30 in the series on human eosinophils is 0.229 µM.

Consider `COc1ccc(C2=NN(C3CCN(C(=O)[C@H](C)NCC(O)c4cc(Cl)c(N)c(C#N)c4)CC3)C(=O)[C@@H]3CC=CC[C@H]23)cc1OC.Cl` (stereo partly drawn) [Compound 33, 2-Amino-3-chloro-5-[2-((S)-2-{4-[(4aS,8aR)-4-(3,4-dimethoxy-phenyl)-1-oxo-4a,5,8,8a-tetrahydro-1H-phthalazin-2-yl]-piperidin-1-yl}-1-methyl-2-oxo-ethylamino)-1-hydroxy-ethyl]-benzonitrile hydrochloride], for which the melting point lay within 160 to 161 °C. For the same molecule, the Inhibition of PDE4 activity [-logIC50] in the series with PDE4 worked out at 10.1. The IC30 with human eosinophils is 0.501 µM.

For “(cis)-2-(4-[{2-(4-amino-3-chloro-5-cyanophenyl)-2-hydroxyethyl}amino]-1-butyl)-4-(3,4-dimethoxyphenyl)-4a,5,8,8a-tetrahydro-2H-phthalazin-1-one hemifumarate [Compound 11]”, on β2-adrenoceptor, the “β2-Adrenoceptor agonistic affinity [-logEC50 (mol/l)]” value is given as 8.11 -log(mol/l). Further, the “Inhibition of C5a-stimulated chemiluminescence [-logIC30 (mol/l)]” value with human eosinophils was found to be 6.22 mol/l.

Source of the values: US6933296B2, “Compounds effective as β2-adrenoreceptor agonists as well as PDE4-inhibitors” (Altana Pharma B.V., priority 2000, dated 2005).
